Paper PMC9386001, “Identification of naturally occurring inhibitors in Xian-Ling-Gu-Bao capsule against the glucuronidation of estrogens” (Frontiers in Pharmacology, 2022)

Tests used:
UGT1A10 [1] = biological target: T1, UGT1A10 (Homo sapiens, UniProt Q9HAW8); parameters: purchased Corning Biosciences; conditions: substrate of UGT1A10; ref Xin et al., 2016; Gao et al., 2020; cited from earlier work
T1 sequence (Q9HAW8 26-530): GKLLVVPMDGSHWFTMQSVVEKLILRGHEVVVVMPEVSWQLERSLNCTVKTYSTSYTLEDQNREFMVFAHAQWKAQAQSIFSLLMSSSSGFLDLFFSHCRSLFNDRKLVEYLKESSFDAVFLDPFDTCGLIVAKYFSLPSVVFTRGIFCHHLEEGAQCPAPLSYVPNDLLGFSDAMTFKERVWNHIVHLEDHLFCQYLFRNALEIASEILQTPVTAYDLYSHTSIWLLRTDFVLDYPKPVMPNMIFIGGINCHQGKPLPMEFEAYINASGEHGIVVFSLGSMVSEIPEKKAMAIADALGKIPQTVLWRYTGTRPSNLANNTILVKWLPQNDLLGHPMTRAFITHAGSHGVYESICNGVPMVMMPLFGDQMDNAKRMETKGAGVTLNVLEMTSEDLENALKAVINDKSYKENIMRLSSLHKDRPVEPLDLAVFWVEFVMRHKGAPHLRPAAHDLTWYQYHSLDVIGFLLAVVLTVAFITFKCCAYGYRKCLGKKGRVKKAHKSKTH

[2] = test system: human liver microsomes (HLM); assay: Estrogen glucuronidation kinetics by HLM; format: in vitro ADME; conditions: HLM
Procedure: (§1) In brief, incubation mixtures (100 μL) contained Tris-HCl buffer solution (50 mM, pH = 7.4), microsomes (HLM, HIM, 0.5 mg/ml) or UGT enzymes (1 mg/ml), MgCl2 (0.88 mM), alamethicin (22 μg/ml), and D-saccharic-1,4-lactone (4.4 mM) and respective substrate. The volume of organic solvent in incubation mixtures was kept below 1%. After pre-incubation at 37°C for 5 min, the reaction was commenced with the addition of UDPGA (4 mM) and subsequently incubated at 37°C for a period. The reaction was terminated by adding 100 μL of cold acetonitrile. Then, the incubation mixtures were vortexed and centrifuged at 13,800 g for 10 min to collect the supernatant for analysis.
(§2) All experiments were performed in triplicate.
(§3) Glucuronidation rates were expressed as the amounts of formed metabolites per minute per milligram protein (pmol/min/mg protein) based on Eq. 1. Furthermore, kinetic characteristics were evaluated from the suitable curves based on the profile of the Eadie–Hofstee plot, and corresponding kinetic parameters were estimated using Eqs 2–4. Appropriated model fitting was performed by GraphPad Prism V5 software (San Diego, CA).
(§4) The intrinsic clearance (CL int ) was derived from V max /K m for Michaelis–Menten and substrate inhibition models, and the maximal clearance (CL max ) was obtained using Eq. 5 for Hill kinetics. Vg=Cs∗V/Cprotein∗T∗Vprotein. (1) V=Vmax×[S]/Km+[S], (2) V=Vmax×[S]/Km+[S](1+[S]/Ksi), (3) V=Vmax×[S]^n/S50n[…], (4) CLmax=Vmax/S50×n−1/n(n−1)^1/n. (5)

[3] = test system: human intestine microsomes (HIM); assay: Estrogen glucuronidation kinetics by HIM; format: in vitro ADME; conditions: HIM
Procedure: as §2
(§5) Vg=Cs∗V/Cprotein∗T∗Vprotein. […] (5)

[4] = Estrogen glucuronidation kinetics by HIM; format: in vitro ADME, human; conditions: human, human intestine microsomes, pH 7.4, HIM, read-out: CL int or CL max
Procedure: as §2, §5

UGT1A3 = biological target: T2, UGT1A3 (Homo sapiens, UniProt P35503); assay: Estrogen glucuronidation kinetics by expressed UGT1A3; format: in vitro ADME
T2 construct: purchased Corning Biosciences
T2 sequence (P35503 29-534): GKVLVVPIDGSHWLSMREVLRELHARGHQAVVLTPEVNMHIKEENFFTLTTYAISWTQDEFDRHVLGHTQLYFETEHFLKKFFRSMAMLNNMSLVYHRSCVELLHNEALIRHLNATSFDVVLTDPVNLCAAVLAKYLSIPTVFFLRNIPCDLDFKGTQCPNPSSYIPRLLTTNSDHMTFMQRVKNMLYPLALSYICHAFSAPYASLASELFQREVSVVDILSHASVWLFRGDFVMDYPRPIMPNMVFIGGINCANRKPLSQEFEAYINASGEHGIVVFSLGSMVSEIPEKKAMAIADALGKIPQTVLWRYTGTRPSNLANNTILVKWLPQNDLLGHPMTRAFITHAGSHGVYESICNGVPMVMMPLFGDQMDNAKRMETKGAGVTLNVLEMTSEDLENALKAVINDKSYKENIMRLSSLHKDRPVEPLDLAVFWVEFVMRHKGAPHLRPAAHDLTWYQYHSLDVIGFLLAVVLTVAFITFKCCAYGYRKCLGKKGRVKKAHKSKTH
Procedure: as §1, §2, §3
(§6) The intrinsic clearance (CL int ) was derived from V max /K m for Michaelis–Menten and substrate inhibition models, and the maximal clearance (CL max ) was obtained using Eq. 5 for Hill kinetics. Vg=Cs∗V/Cprotein∗T∗Vprotein. […]

UGT1A1 = biological target: T3, UGT1A1 (Homo sapiens, UniProt P22309); assay: Estrogen glucuronidation kinetics by expressed UGT1A1; conditions: 3-O-glucuronide formation
T3 sequence (P22309 26-533): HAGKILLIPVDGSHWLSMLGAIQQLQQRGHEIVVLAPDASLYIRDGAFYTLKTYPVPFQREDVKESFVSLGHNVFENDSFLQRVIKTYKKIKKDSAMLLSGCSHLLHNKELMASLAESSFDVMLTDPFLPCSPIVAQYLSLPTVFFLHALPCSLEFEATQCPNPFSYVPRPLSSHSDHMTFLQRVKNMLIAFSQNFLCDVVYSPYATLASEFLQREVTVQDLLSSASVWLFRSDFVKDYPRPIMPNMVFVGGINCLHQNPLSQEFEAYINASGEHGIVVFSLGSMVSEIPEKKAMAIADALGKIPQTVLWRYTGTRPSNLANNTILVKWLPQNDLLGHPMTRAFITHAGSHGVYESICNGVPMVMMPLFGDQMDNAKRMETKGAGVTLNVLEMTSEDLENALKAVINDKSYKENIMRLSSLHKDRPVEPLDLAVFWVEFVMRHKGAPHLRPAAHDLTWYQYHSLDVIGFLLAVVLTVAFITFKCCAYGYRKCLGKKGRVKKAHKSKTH
Procedure: as §1, §2, §3, §6

UGT1A10 [5] = biological target: T1, UGT1A10; assay: Glucuronidation kinetics by expressed UGT1A10
Procedure: as §1, with “The glucuronidation assay was conducted as described previously ([Qin et al., 2018]; [Xu et al., 2018]). In” for “In”
as §2, §3, §4

[6] = Estrogen glucuronidation kinetics by HLM; format: in vitro ADME, human; conditions: human, human liver microsomes, pH 7.4, HLM, read-out: CL int or CL max
Procedure: as §1, §2, §3, §4

UGT2B7 = biological target: T4, UGT2B7 (Homo sapiens, UniProt P16662); assay: Estrogen glucuronidation kinetics by expressed UGT2B7; conditions: recombinant (expressed) UGT2B7, pH 7.4
T4 sequence (P16662 24-529): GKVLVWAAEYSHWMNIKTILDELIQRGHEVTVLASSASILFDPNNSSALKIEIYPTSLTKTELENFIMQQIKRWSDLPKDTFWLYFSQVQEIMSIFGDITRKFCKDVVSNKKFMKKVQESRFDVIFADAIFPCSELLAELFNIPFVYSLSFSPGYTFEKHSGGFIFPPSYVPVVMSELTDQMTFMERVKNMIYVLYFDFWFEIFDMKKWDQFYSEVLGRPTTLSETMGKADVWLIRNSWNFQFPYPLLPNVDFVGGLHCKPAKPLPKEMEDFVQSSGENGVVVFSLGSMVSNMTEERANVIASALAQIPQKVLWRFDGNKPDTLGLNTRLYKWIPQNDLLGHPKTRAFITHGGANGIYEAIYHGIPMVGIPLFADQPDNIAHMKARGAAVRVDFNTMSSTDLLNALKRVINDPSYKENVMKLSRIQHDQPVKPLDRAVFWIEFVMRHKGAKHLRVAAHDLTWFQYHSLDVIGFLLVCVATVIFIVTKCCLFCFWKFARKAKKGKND

[7] = substrate: C[C@]12CC[C@@H]3c4ccc(O)cc4CC[C@H]3[C@@H]1CCC2=O; assay: Estrogen glucuronidation kinetics by expressed UGT1A3; format: in vitro ADME, human; conditions: other: UGT1A3; 3-O-glucuronide formation; pH 7.4; 37.0 °C
[8] = 3-O-glucuronide formation, Hill coefficient

Question: With `Cc1cc(=O)oc2cc(O)ccc12` [4-MU, 4-methylumbelliferone] as the molecule, how does the Km (UGT1A10 [1]) read?
Answer: The Km was ~60 µM.

Question: Which “K m or S50” value ([2]; 3-O-glucuronide formation) does the source give for `C[C@]12CC[C@@H]3c4ccc(O)cc4CC[C@H]3[C@@H]1CCC2=O` [E1, Estrone] here?
Answer: Its value is 6.87 ± 0.59 µM.

Question: And the “K m or S50” value ([3]; 3-O-glucuronide formation)?
Answer: Its value is 8.82 ± 0.37 µM.

Question: What about the h [3, 8] of the same molecule?
Answer: Its h is 1.63 ± 0.09.

Question: What about the microsomal CLint ([4]; 3-O-glucuronide formation) of the same molecule?
Answer: Its microsomal CLint is 25.25 ± 0.24 µL/min/mg.

Question: And the h (UGT1A3; [8])?
Answer: The h was 2.09 ± 0.16.

Question: And the microsomal CLint (UGT1A3; human, recombinant (expressed) UGT1A3, pH 7.4, 3-O-glucuronide formation, read-out: CL int or CL max)?
Answer: The microsomal CLint was 11.7 ± 0.95 µL/min/mg.

Question: What does the source list for `C[C@]12CC[C@@H]3c4ccc(O)cc4CC[C@H]3[C@@H]1CC[C@@H]2O` [E2, β-estradiol]?
Answer: K m or S50 (UGT1A1): 11.08 ± 0.48 µM; V max (UGT1A1): 754.9 ± 15.14 pmol/min/mg; K m or S50 (UGT1A10 [5]; 3-O-glucuronide formation): 113.2 ± 46.66 µM; Ki (UGT1A10 [5]; 3-O-glucuronide formation, substrate inhibition constant): 71.98 ± 35.77 µM; K m or S50 (UGT1A10 [5]; 17-O-glucuronide formation): 16.39 ± 3.53 µM

Question: For `C[C@]12CC[C@@H]3c4ccc(O)cc4CC[C@H]3[C@@H]1C[C@@H](O)[C@@H]2O` [E3, estriol], which “K m or S50” value ([2]; 3-O-glucuronide formation) is on record?
Answer: Its value is 86.1 ± 12.39 µM.

Question: What about the “K m or S50” value ([2]; 16-O-glucuronide formation) of the same molecule?
Answer: Its value is 11.91 ± 0.60 µM.

Question: What about the microsomal CLint ([6]; 3-O-glucuronide formation) of the same molecule?
Answer: The microsomal CLint was 1.58 ± 0.16 µL/min/mg.

Question: What about the microsomal CLint ([6]; 16-O-glucuronide formation) of the same molecule?
Answer: Its microsomal CLint is 542.32 ± 0.05 µL/min/mg.

Question: And the “K m or S50” value ([3]; 3-O-glucuronide formation)?
Answer: The value was 50.18 ± 4.40 µM.

Question: What about the “K m or S50” value ([3]; 16-O-glucuronide formation) of the same molecule?
Answer: Its value is 11.59 ± 0.49 µM.

Question: What about the microsomal CLint ([4]; 3-O-glucuronide formation) of the same molecule?
Answer: Its microsomal CLint is 10.74 ± 0.1 µL/min/mg.

Question: What about the microsomal CLint ([4]; 16-O-glucuronide formation) of the same molecule?
Answer: Its microsomal CLint is 109.4 ± 0.04 µL/min/mg.

Question: What about the microsomal CLint (UGT2B7) of the same molecule?
Answer: Its microsomal CLint is 793.8 ± 0.07 µL/min/mg.

B1: UGT1A3 (Homo sapiens) (protein)
chain: T2 sequence (P35503 29-534)
notes: purchased Corning Biosciences
Question: Which K0.5 [7] does the source give for B1 here?
Answer: Its K0.5 is 9.23 ± 0.39 µM.
